pIC50: −log10 of the molar value. Peptide text beside a SMILES is read from it.
molecular target: T1, ACE derived from bovine lung (Bos taurus, UniProt P12820); assay: Evaluation of ACE inhibitory activity (hippuryl-histidyl-leucine substrate, absorbance at 228 nm); assay type: biochemical; conditions: peptide concentration at which ACE inhibitory effect was 50%; 37° C., 30 minutes, pH 8.3 borate buffer
T1 construct: ACE derived from bovine lung; host or cells: bovine lung tissue
T1 sequence (P12820 29-1306): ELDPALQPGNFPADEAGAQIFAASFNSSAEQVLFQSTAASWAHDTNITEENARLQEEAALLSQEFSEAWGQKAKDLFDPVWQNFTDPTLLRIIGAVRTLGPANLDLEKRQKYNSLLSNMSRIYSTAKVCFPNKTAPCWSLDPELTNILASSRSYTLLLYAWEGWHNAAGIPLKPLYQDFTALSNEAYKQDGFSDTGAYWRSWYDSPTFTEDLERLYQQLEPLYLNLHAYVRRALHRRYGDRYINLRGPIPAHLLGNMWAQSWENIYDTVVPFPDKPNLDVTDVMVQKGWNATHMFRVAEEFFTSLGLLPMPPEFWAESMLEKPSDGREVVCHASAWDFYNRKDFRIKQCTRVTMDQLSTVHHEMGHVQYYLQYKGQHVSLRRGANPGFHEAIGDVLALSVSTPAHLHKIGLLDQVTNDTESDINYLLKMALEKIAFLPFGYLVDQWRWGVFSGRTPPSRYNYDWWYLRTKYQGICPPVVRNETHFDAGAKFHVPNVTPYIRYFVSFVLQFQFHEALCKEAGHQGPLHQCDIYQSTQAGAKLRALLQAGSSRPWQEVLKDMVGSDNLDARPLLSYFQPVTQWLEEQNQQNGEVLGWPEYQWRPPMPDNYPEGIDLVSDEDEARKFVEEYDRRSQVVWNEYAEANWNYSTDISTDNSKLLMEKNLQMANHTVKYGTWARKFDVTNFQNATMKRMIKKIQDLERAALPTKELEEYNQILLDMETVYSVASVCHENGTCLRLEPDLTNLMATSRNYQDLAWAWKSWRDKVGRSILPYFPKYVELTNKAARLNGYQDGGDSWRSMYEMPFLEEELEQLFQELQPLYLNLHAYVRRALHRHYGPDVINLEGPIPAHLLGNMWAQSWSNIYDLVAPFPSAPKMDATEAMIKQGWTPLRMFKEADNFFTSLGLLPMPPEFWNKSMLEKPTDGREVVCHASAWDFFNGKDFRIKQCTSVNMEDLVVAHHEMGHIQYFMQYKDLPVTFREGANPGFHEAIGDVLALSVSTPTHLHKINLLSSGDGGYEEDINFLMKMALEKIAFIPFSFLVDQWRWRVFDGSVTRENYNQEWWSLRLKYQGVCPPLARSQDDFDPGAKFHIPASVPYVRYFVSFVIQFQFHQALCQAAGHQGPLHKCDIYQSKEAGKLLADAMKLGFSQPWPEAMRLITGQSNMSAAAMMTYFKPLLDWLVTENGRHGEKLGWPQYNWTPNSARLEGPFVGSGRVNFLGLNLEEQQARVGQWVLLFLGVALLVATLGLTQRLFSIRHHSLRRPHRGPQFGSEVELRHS
Procedure: Solutions of each of these peptides at various concentrations were prepared, and measured for the ACE inhibitory activity in accordance with the method discussed below. The peptide concentration (μM) at which the ACE inhibitory effect was 50% was taken as IC50 value.
<Evaluation of ACE Inhibitory Activity>
ACE derived from bovine lung (manufactured by WAKO PURE CHEMICAL […], LTD.) was dissolved in a 0.1M borate buffer at pH 8.3 in an amount of 0.1 U, to obtain an ACE solution. […] Subsequently, the reaction was terminated by adding 250 μl of 1N hydrochloric acid (manufactured by WAKO PURE CHEMICAL […], LTD.). 1.7 ml of ethyl acetate (manufactured by WAKO PURE CHEMICAL […], LTD.) was then added, and stirred. 1.4 ml of the ethyl acetate layer was taken, placed in another tube, and evaporated at 120° C. for about 60 minutes to obtain a dried product. The dried product was dissolved in 1 ml of distilled water, and the absorbance at 228 nm of hippuric acid extracted with ethyl acetate was measured. As controls, absorbance was measured of a solution without the diluted solution and a solution without the diluted solution and the ACE solution. From the obtained absorbance, ACE inhibitory activity was calculated in accordance with the following formula. ACE inhibitory activity (%)=[(A−B)/A]×100 • A: (Absorbance of solution without diluted solution but with ACE solution)—(Absorbance of solution without diluted solution and ACE solution)
B: (Absorbance of solution with diluted solution and ACE solution)—(Absorbance of solution with diluted solution but without ACE solution)

Compound | pIC50
NC(N)=NCCC[C@H](N)C(=O)N1CCC[C@H]1C(=O)O [Arg-Pro] (H-Arg-Pro-OH) | 3.56
NC(=O)CC[C@H](N)C(=O)N1CCC[C@H]1C(=O)O [Gln-Pro] (H-Gln-Pro-OH) | 4.18
N[C@@H](CCC(=O)O)C(=O)N1CCC[C@H]1C(=O)O [Glu-Pro] (H-Glu-Pro-OH; N-terminus and C-terminus assumed) | 3.76
CC[C@H](C)[C@H](N)C(=O)N1CCC[C@H]1C(=O)O [Ile-Pro] (H-Ile-Pro-OH; N-terminus and C-terminus assumed) | 3.35
CSCC[C@H](N)C(=O)N1CCC[C@H]1C(=O)O [Met-Pro] (H-Met-Pro-OH; N-terminus and C-terminus assumed) | 3.87
